# Experimental data as given in publication PMC12362431, “Kinetic Dissection of the Reaction of Human GDP-L-Fucose Synthase” (ACS Catalysis, 2025).
# Like-named read-outs stand apart in the source and are kept apart here.
# Experiments:
# [1] = biological target: enzyme/NADP+ (GFS/NADP+ complex) (Homo sapiens, UniProt Q13630); test: Fluorescence titration, equilibrium binding (quenching of intrinsic protein fluorescence)
# [2] = biological target: enzyme/NADPH4 (GFS/NADPH4 complex) (Homo sapiens, UniProt Q13630); test: as above
# Sequence of enzyme/NADPH4 (GFS/NADPH4 complex) (Q13630 8-321, one chain of several): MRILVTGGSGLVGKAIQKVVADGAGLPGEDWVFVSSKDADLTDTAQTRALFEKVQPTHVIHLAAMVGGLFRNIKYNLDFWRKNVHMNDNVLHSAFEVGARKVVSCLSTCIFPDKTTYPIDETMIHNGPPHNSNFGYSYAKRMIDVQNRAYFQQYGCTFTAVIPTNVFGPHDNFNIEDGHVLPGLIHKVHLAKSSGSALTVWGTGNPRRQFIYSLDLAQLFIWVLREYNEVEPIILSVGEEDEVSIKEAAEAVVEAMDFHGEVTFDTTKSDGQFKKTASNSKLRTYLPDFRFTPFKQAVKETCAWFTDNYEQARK
# GFS [3] = biological target: GFS; set-up: method as in not given; settings: earlier studies of GFS, source organism not given; ref not given; cited from earlier work
# GFS complex with NADPH4 = biological target: T1, GFS complex with NADPH4 (Homo sapiens, UniProt Q13630); test: Stopped-flow transient kinetic analysis of binding of GDP-L-fucose (fluorescence quenching)
# T1 construct: made in house; host or cells: E. coli Rosetta 2(DE3)
# T1 sequence (Q13630 8-321, one chain of several): as above
# wild-type GFS [4] = biological target: T2, wild-type GFS (Homo sapiens, UniProt Q13630); test: Global simulation fitting of mechanism b to transient stopped-flow curves; assay type: biochemical; settings: release from the ternary product complex enzyme/NADP+/GDP-L-fucose
# T2 construct: made in house; host or cells: E. coli Rosetta 2(DE3)
# T2 sequence (Q13630 8-321): as the sequence (Q13630 8-321, one chain of several) above
# Protocol: Spectrofluorometric analysis of ligand binding
# Fluorescence titrations of wild-type GFS in the binding of coenzyme, substrate and/or product were performed using a fluorescence spectrophotometer F-4500 (Hitachi, Ltd., Tokyo, Japan).
# Emission spectra were recorded in the range 300–500 nm at 1200 nm/min with the excitation […]
# 25 mM NaCl, pH 8.0) without agitation (25 °C). […] The resulting fluorescence signals were plotted versus ligands concentrations and the data were fitted to a hyperbol ic equation (Eq. S6) to obtain the Kd value (Figure S8, S9; Table S3): […]
# where F is the fluorescence emission, [L] is concentration of ligand, F1 is the initial and F2 is the final fluorescence signal, [E] is the enzyme subunit concentration. […]
# the fluorescence measurements. […]
# Standard errors for the fitted rate constants were estimated as standard deviations based on the variability observed during global fitting . The goodness of fit to the model was assessed by confidence contour analysis, in which all parameters, except for k-1, were well constrained by the data. […]
# [5] = biological target: apo GFS (ligand-free wild-type GFS) (Homo sapiens, UniProt Q13630); test: Fluorescence titration, equilibrium binding (quenching of intrinsic protein fluorescence); settings: for Kd: apo GFS 0.40 μM, 10 mM Tris, 25 mM NaCl, pH 8.0, 25 °C
# Sequence of apo GFS (ligand-free wild-type GFS) (Q13630 8-321): as the sequence (Q13630 8-321, one chain of several) above
# wild-type GFS [6] = biological target: T2, wild-type GFS; test: Steady-state initial-rate kinetics and primary KIE (NADPH consumption, absorbance at 340 nm); assay type: biochemical
# GFS variant Y143F = biological target: T3, GFS variant Y143F (Homo sapiens, UniProt Q13630, Y143F); test: as above; assay type: biochemical
# T3 construct: made in house; host or cells: E. coli Rosetta 2(DE3)
# T3 sequence (Q13630 whole entry Y143F): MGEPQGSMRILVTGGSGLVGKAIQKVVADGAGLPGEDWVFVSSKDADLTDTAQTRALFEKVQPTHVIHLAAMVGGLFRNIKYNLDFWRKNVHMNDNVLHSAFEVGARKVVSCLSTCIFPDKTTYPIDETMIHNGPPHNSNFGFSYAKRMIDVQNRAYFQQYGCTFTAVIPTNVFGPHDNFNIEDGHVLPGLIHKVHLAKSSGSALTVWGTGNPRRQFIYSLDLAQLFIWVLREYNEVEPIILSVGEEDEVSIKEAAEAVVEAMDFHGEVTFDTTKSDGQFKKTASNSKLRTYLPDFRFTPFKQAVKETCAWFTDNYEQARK
# GFS [7] = tested on: GFS; set-up: method as in not given; settings: earlier studies of GFS, source organism not given; ref not given; cited from earlier work; remark: listed apart in the source
# GFS variant H186K = biological target: T4, GFS variant H186K (Homo sapiens, UniProt Q13630, H186K); test: Steady-state initial-rate kinetics and primary KIE (NADPH consumption, absorbance at 340 nm); assay type: biochemical
# T4 construct: made in house; host or cells: E. coli Rosetta 2(DE3)
# T4 sequence (Q13630 whole entry H186K): as the sequence (Q13630 whole entry Y143F) above, with F143Y, H186K counted along it
# GFS variant C116S = biological target: T5, GFS variant C116S (Homo sapiens, UniProt Q13630, C116S); test: as above; assay type: biochemical; settings: deuterated vs unlabeled substrate/coenzyme, pH 8.0, 37 °C, in 1/s
# T5 construct: made in house; host or cells: E. coli Rosetta 2(DE3)
# T5 sequence (Q13630 whole entry C116S): as the sequence (Q13630 whole entry Y143F) above, with C116S, F143Y counted along it
# [8] = nonlinear fit of kobs with eq S15
# [9] = deuterated vs unlabeled substrate/coenzyme, pH 8.0, 37 °C, in 1/s
# [10] = varied substrate 3, pH 8.0, 37 °C
# Sequence of enzyme/NADP+ (GFS/NADP+ complex) (Q13630 8-321, one chain of several): as the sequence (Q13630 8-321, one chain of several) above
smiles,measurement,setting,value
"CC1OC(OP(=O)(O)OP(=O)(O)OCC2OC(n3cnc4c(=O)[nH]c(N)nc43)C(O)C2O)C(O)C(O)C1O [1a, GDP-L-fucose]",Kd,[1],13 ± 4 µM
same,Kd,[2],1.1 ± 0.2 µM
same,tighter binding to enzyme-NADPH4 than to enzyme-NADP+,[2]; ratio of Kd values,~12 fold
same,Ki,GFS [3],55.3 µM
same,koff,"GFS complex with NADPH4; global simulation fit, lower bound only, read-out: koff (association step)",≥ 11 s⁻¹
same,kon,"GFS complex with NADPH4; global simulation fit, lower bound only, read-out: kon (association step)",≥ 2e+06 M⁻¹ s⁻¹
same,k′1,"GFS complex with NADPH4; global simulation fit, range 0.3–0.8 s^–1",0.6 s^–1
same,k′–1,"GFS complex with NADPH4; global simulation fit, range 0.5–1.4 s^–1",0.9 s^–1
same,Kd,"GFS complex with NADPH4; global simulation fit, range 3–12 μM, read-out: Kd (two-step binding)",7 µM
same,k′1 (forward conformational change),GFS complex with NADPH4; [8],0.6 ± 0.1 s⁻¹
same,"k′–1 (reverse conformational change, GDP-L-fucose release rate)",GFS complex with NADPH4; [8],0.5 ± 0.1 s^–1
same,Kd,"GFS complex with NADPH4; nonlinear fit of kobs with eq S15, GFS 2.0 μM, NADPH4 15.0 μM, pH 8.0, 37 °C, read-out: Kd (encounter complex, two-step binding)",4 ± 2 µM
same,rate constant for the release,wild-type GFS [4],12 s^–1
"Nc1nc2c(ncn2[C@@H]2O[C@H](COP(=O)(O)OP(=O)(O)O)[C@@H](O)[C@H]2O)c(=O)[nH]1 [GDP, guanosine 5′-diphosphate]",Ki,GFS [3],60.5 µM
NC(=O)c1ccc[n+]([C@@H]2O[C@H](COP(=O)([O-])OP(=O)(O)OC[C@H]3O[C@@H](n4cnc5c(N)ncnc54)[C@H](OP(=O)(O)O)[C@@H]3O)[C@@H](O)[C@H]2O)c1 [NADP+],Kd,[5],8 ± 2 µM
same,rate constant for the release,wild-type GFS [4],26 s^–1
"NC(=O)C1=CN([C@@H]2O[C@H](COP(=O)(O)OP(=O)(O)OC[C@H]3O[C@@H](n4cnc5c(N)ncnc54)[C@H](OP(=O)(O)O)[C@@H]3O)[C@@H](O)[C@H]2O)CCC1 [NADPH4, 1″,4″,5″,6″-tetrahydro-NADPH]",Kd,[5],0.3 ± 0.1 µM
same,tighter binding to the free GFS than NADP+,[5]; ratio of Kd values,27 fold
NC(=O)C1=CN([C@@H]2O[C@H](COP(=O)(O)OP(=O)(O)OC[C@H]3O[C@@H](n4cnc5c(N)ncnc54)[C@H](OP(=O)(O)O)[C@@H]3O)[C@@H](O)[C@H]2O)C=CC1 [NADPH],Km,"wild-type GFS [6]; varied NADPH, substrate 3 100 μM, pH 8.0, 37 °C",0.75 ± 0.03 µM
[2H][C@@H]1C=CN([C@@H]2O[C@H](COP(=O)(O)OP(=O)(O)OC[C@H]3O[C@@H](n4cnc5c(N)ncnc54)[C@H](OP(=O)(O)O)[C@@H]3O)[C@@H](O)[C@H]2O)C=C1C(N)=O [[4S-^2H]-NADPH],kinetic isotope effect on kcat (Dkcat),GFS variant Y143F; [9],3.9 ± 0.3
same,"kinetic isotope effect on kcat/Km, Dkcat/Km^3",GFS variant Y143F; [10],4 ± 1
same,KIE on the enzymatic rate,GFS [7],1.4
same,kinetic isotope effect on kcat (Dkcat),GFS variant H186K; [9],1.12 ± 0.08
same,"kinetic isotope effect on kcat/Km, Dkcat/Km^3",GFS variant H186K; [10],1.1 ± 0.5
same,kinetic isotope effect on kcat (Dkcat),wild-type GFS [6]; [9],1.03 ± 0.05
same,"kinetic isotope effect on kcat/Km, Dkcat/Km^NADPH","wild-type GFS [6]; varied coenzyme, substrate 3 100 μM, pH 8.0, 37 °C",1.6 ± 0.2
same,"kinetic isotope effect on kcat/Km, Dkcat/Km^3",wild-type GFS [6]; [10],1.4 ± 0.4
same,kinetic isotope effect on kcat (Dkcat),GFS variant C116S,1.0 ± 0.2
